Laboratory results from ChEMBL document CHEMBL5291721, “A preclinical secondary pharmacology resource illuminates target-adverse drug reaction associations of marketed drugs” (Nat Commun, 2023).

Assays:
[1] = target: Sodium-dependent dopamine transporter (Homo sapiens, UniProt Q01959)
[2] = target: cGMP-inhibited 3',5'-cyclic phosphodiesterase 3A (Homo sapiens, UniProt Q14432); assay type: functional
[3] = target: Histamine H3 receptor (Homo sapiens, UniProt Q9Y5N1)
[4] = target: T1, 5-hydroxytryptamine receptor 1A (Homo sapiens, UniProt P08908)
T1 sequence (P08908 whole entry): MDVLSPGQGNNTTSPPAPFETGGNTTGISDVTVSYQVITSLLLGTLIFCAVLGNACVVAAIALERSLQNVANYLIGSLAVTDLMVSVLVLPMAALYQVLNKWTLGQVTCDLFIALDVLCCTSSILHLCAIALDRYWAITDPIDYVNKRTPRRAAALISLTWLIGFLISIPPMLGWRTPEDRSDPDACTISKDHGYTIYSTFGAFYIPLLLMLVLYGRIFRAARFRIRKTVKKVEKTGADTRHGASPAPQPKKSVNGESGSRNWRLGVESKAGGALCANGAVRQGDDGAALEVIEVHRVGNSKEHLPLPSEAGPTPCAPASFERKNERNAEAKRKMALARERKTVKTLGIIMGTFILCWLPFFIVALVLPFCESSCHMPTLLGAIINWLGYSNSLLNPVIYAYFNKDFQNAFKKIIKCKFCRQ

[5] = target: Sodium-dependent noradrenaline transporter (Homo sapiens, UniProt P23975)
[6] = target: Prostaglandin G/H synthase 1 (Homo sapiens, UniProt P23219); assay type: functional
Prostaglandin G/H synthase 1, sequence (P23219 whole entry): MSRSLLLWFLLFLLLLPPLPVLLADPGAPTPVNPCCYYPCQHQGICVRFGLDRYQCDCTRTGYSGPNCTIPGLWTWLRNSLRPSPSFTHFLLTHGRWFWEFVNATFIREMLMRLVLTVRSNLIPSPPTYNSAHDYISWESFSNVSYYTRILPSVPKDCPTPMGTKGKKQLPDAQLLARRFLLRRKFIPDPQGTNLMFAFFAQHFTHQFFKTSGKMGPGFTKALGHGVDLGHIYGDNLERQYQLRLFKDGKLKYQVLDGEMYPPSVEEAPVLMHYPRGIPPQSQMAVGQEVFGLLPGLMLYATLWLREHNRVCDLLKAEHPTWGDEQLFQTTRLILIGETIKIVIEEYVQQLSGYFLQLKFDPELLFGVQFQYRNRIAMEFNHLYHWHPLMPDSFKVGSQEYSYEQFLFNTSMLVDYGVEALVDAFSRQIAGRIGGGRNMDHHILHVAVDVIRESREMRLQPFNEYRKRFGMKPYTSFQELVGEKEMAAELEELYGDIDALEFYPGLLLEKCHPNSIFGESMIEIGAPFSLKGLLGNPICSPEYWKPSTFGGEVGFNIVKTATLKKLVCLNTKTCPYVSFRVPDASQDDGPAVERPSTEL

[7] = target: T2, Alpha-1A adrenergic receptor (Homo sapiens, UniProt P35348); assay type: functional, cell-based
T2 sequence (P35348 whole entry): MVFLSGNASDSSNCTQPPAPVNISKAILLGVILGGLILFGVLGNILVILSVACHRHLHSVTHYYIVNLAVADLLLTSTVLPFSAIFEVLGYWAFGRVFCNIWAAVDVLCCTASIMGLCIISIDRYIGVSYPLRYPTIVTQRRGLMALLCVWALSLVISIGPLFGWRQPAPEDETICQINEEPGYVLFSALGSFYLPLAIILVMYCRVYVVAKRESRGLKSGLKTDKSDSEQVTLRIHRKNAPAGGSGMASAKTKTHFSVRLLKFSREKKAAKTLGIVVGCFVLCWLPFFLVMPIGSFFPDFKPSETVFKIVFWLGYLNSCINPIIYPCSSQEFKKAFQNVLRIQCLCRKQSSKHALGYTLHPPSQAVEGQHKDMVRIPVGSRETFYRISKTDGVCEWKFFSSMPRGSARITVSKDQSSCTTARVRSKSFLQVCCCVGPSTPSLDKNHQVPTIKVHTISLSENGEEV

[8] = target: Gamma-aminobutyric acid receptor subunit alpha-1/alpha-2/beta-2/gamma-2 (Homo sapiens, UniProt P14867+P18507+P47869+P47870); assay type: protein-complex assay
Gamma-aminobutyric acid receptor subunit alpha-1/alpha-2/beta-2/gamma-2, sequence (P14867 whole entry): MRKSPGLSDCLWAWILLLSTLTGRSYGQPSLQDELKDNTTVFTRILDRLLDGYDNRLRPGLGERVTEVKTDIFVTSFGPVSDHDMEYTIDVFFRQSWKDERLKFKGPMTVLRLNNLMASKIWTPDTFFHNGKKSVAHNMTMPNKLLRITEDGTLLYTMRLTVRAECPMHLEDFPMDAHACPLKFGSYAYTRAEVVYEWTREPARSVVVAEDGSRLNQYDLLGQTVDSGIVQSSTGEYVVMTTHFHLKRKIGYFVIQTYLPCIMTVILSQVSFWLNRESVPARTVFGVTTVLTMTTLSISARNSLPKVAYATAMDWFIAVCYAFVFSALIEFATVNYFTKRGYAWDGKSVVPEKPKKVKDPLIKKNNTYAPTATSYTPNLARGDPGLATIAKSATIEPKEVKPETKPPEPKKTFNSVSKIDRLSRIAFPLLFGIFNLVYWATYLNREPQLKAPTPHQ
Gamma-aminobutyric acid receptor subunit alpha-1/alpha-2/beta-2/gamma-2, sequence (P47870 whole entry): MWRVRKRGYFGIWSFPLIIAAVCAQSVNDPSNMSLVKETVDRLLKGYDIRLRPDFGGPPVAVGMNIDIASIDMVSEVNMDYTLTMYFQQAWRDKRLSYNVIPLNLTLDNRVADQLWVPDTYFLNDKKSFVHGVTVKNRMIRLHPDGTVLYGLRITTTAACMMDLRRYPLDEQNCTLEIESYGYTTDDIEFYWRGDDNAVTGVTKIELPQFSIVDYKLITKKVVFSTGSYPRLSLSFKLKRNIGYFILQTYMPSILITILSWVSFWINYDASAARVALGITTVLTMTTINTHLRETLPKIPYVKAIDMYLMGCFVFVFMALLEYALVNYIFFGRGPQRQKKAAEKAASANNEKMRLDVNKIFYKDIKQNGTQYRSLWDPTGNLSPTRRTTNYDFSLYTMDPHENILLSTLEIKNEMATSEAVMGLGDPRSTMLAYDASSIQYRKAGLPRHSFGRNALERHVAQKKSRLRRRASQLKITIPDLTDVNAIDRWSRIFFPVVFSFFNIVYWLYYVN
Gamma-aminobutyric acid receptor subunit alpha-1/alpha-2/beta-2/gamma-2, sequence (P18507 whole entry): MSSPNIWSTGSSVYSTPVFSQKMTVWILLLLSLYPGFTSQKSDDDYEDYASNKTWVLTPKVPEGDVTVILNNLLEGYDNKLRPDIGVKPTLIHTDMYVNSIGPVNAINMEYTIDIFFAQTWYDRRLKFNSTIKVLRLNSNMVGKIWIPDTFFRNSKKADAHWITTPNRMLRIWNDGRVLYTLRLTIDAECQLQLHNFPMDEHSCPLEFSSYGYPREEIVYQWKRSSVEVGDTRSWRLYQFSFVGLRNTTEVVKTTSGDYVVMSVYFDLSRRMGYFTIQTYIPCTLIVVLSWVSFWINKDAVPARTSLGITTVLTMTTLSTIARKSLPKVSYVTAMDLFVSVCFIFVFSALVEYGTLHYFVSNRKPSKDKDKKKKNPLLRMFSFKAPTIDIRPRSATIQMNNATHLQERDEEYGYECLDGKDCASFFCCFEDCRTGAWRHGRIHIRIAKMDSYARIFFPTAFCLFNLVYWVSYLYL
Gamma-aminobutyric acid receptor subunit alpha-1/alpha-2/beta-2/gamma-2, sequence (P47869 whole entry): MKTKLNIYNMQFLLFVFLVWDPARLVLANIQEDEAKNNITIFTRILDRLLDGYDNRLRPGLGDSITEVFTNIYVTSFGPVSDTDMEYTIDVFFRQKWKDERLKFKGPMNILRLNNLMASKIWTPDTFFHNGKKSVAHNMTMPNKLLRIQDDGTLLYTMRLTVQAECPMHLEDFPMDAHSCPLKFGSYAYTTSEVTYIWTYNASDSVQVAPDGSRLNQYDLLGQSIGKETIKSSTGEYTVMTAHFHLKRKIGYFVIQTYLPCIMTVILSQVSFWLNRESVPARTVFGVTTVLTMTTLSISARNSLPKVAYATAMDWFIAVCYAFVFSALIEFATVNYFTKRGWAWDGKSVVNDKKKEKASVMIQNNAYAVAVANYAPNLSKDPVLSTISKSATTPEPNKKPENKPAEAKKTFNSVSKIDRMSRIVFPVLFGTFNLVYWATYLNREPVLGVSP

[9] = target: 3',5'-cyclic-AMP phosphodiesterase 4A (Homo sapiens, UniProt P27815); assay type: functional
[10] = target: T3, Amine oxidase [flavin-containing] A (Homo sapiens, UniProt P21397); assay type: functional
T3 sequence (P21397 whole entry): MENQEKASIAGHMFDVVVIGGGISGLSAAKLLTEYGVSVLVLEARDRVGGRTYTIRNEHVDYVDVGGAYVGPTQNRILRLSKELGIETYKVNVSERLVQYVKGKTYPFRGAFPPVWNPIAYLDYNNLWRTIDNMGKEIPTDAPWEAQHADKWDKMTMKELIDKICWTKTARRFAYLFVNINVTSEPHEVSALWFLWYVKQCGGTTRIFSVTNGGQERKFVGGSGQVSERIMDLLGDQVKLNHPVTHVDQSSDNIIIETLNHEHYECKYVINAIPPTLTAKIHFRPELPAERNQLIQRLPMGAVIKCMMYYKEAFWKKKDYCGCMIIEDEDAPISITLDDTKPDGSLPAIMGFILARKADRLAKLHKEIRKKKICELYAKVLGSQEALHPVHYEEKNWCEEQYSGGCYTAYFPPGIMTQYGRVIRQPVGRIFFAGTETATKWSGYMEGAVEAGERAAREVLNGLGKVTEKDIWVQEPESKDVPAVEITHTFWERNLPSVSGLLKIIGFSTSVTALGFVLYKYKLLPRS

[11] = target: Sodium-dependent serotonin transporter (Homo sapiens, UniProt P31645)
Further: assay procedure not described here.

Sodium-dependent dopamine transporter, sequence (Q01959 whole entry): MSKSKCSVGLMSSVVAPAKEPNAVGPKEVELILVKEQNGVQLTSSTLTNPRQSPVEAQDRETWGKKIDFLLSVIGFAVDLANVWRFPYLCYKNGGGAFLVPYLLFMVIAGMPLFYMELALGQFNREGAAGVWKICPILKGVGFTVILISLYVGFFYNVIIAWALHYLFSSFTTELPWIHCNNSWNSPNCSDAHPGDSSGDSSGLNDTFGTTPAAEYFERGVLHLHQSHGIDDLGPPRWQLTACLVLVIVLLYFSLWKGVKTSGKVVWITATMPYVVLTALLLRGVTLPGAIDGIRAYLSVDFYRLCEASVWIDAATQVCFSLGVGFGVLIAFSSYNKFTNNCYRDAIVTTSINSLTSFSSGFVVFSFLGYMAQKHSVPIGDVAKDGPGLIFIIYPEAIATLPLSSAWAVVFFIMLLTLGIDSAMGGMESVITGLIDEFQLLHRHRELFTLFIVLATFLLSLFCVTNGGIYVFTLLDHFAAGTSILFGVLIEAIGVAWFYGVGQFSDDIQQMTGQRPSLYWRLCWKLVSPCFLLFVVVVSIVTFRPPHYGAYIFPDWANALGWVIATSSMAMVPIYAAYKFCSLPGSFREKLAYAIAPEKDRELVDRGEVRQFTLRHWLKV
Histamine H3 receptor, sequence (Q9Y5N1 whole entry): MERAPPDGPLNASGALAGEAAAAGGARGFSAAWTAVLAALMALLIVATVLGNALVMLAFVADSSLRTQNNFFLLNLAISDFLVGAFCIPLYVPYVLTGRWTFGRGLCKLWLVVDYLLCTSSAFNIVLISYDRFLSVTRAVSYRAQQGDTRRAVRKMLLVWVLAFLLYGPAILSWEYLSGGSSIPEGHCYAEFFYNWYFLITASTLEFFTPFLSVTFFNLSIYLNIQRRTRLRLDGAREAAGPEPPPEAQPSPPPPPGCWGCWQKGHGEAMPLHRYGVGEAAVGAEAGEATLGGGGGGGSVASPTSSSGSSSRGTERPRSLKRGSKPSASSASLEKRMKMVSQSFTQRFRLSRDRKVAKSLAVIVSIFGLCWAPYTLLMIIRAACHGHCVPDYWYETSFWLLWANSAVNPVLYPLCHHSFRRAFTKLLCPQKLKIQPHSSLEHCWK
cGMP-inhibited 3',5'-cyclic phosphodiesterase 3A, sequence (Q14432 whole entry): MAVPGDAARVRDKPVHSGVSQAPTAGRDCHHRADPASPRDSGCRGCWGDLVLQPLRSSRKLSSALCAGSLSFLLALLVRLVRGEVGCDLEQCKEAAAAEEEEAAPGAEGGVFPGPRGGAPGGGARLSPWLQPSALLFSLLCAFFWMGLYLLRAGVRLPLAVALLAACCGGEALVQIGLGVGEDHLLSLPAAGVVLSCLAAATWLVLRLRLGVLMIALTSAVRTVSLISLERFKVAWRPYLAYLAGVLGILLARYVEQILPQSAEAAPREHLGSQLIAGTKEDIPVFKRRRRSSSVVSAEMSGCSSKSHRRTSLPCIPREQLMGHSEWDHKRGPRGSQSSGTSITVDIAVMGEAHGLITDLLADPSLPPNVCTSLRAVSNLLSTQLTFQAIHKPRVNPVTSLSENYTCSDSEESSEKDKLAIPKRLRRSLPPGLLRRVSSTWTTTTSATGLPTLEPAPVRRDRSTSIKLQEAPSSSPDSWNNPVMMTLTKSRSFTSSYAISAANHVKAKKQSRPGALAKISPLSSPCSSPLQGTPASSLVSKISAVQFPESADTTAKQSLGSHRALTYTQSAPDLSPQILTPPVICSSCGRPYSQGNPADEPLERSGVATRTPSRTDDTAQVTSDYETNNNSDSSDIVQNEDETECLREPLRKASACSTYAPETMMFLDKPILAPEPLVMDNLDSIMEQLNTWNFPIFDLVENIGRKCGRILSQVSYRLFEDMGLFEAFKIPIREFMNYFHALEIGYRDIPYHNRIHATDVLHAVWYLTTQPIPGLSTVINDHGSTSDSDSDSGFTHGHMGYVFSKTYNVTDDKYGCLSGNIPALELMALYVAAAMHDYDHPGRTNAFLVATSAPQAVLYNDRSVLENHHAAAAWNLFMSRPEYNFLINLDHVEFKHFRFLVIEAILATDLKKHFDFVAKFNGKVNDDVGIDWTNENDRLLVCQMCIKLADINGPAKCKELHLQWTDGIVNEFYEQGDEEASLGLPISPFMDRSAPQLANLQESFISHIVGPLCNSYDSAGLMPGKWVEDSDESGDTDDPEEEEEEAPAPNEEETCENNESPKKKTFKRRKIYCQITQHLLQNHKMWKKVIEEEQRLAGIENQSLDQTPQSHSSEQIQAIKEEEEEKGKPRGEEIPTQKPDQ

SMILES	AC50 [1]	AC50 [2]	AC50 [3]	AC50 [4]	AC50 [5]	AC50 [6]	AC50 [7]	AC50 [8]	AC50 [9]	AC50 [10]	AC50 [11]
CC(=O)Oc1c(C)c(C)c2c(c1C)CC[C@@](C)(CCC[C@H](C)CCC[C@H](C)CCCC(C)C)O2	> 30 µM	0.933 µM	> 30 µM	> 30000 nM	> 30 µM	> 30 µM	> 30 µM	> 30 µM	9.38 µM	> 30 µM	> 30 µM
CC(C)(C)C(=O)C(Oc1ccc(Cl)cc1)n1ccnc1 (stereo unspecified) [CLIMBAZOLE]	0.0662 µM	> 30 µM	> 30 µM	> 30000 nM	20.8 µM	> 30 µM	> 30 µM	> 30 µM	> 30 µM	> 30 µM	29.7 µM
CCN(CC)CCOC(=O)C(c1ccccc1)C1CCCCC1 (stereo unspecified) [DROFENINE]	0.219 µM	> 30 µM	> 30 µM	2710 nM	13 µM	> 30 µM	> 30 µM	> 30 µM	> 30 µM	> 30 µM	> 30 µM
CCOC(=O)[C@H](CCc1ccccc1)N[C@@H](C)C(=O)N1CC2(C[C@H]1C(=O)O)SCCS2	> 30 µM	> 30 µM	> 30 µM	> 30000 nM	> 30 µM	> 30 µM	> 30 µM	> 30 µM	> 30 µM	> 30 µM	> 30 µM
NNc1nnc(NN)c2ccccc12 [DIHYDRALAZINE]	> 30 µM	> 30 µM	> 30 µM	> 30000 nM	> 30 µM	0.434 µM	> 30 µM	> 30 µM	> 30 µM	26.4 µM	> 30 µM
CC(=O)c1ccc2c(c1)N(CCCN(C)C)c1ccccc1S2 [ACEPROMAZINE]	19.5 µM	> 30 µM	> 30 µM	248 nM	0.161 µM	> 30 µM	> 30 µM	> 30 µM	> 30 µM	> 30 µM	0.145 µM
N=c1ccn2c(n1)O[C@H]1[C@H](O)[C@@H](CO)O[C@H]12 [ANCITABINE]	> 30 µM	> 30 µM	> 30 µM	> 30000 nM	> 30 µM	> 30 µM	> 30 µM	> 30 µM	> 30 µM	> 30 µM	> 30 µM
OC[C@@H](O)[C@H](O)[C@@H](O)CO [XYLITOL]	> 30 µM	> 30 µM	> 30 µM	> 30000 nM	> 30 µM	> 30 µM	> 30 µM	> 30 µM	> 30 µM	> 30 µM	> 30 µM
CC(=O)Oc1ccc2c(c1)CC[C@@H]1[C@@H]2CC[C@]2(C)[C@@H](O)CC[C@@H]12 [ESTRADIOL ACETATE]	8.09 µM	> 30 µM	> 30 µM	> 30000 nM	> 30 µM	> 3 µM	> 30 µM	> 30 µM	> 30 µM	> 30 µM	> 30 µM
CC(C)C[C@H]1C(=O)N2CCC[C@H]2[C@]2(O)O[C@](NC(=O)[C@@H]3C[C@@H]4c5cccc6[nH]cc(c56)C[C@H]4N(C)C3)(C(C)C)C(=O)N12 [DIHYDROERGOCRYPTINE]	> 30 µM	> 30 µM	> 30 µM	12.5 nM	> 30 µM	27.4 µM	5.77 µM	> 30 µM	> 30 µM	> 30 µM	> 30 µM
NC1=NCC2c3ccccc3Cc3ccccc3N12 (stereo unspecified) [EPINASTINE]	> 30 µM	> 30 µM	> 30 µM	1280 nM	4.58 µM	> 30 µM	> 30 µM	28.3 µM	> 30 µM	> 30 µM	10.3 µM
